Source: patent US20240092835A1, “NOVEL PEPTIDES CAPABLE OF ALTERING NK CELL ACTIVITY” (Massachusetts Institute of Technology, priority 2022, published 2024)

How the values were obtained:
HLA-E = biological target: T1, HLA-E (Homo sapiens, UniProt P13747); test: HLA-E surface stabilization assay with RMA-S/HLA-E cells; format: cell-based; conditions: 30 μM peptide, 16 hours, anti-HLA-E antibody
T1 construct: expressed in transfected cells; host or cells: RMA-S/HLA-E cells (antigen processing-defective lymphoma cell line)
Protocol: HLA-E surface expression was assessed by measuring geometric mean fluorescence intensity (GeoMFI) in RMA-S cells following immunofluorescence staining with an anti-HLA-E antibody (Table 14). Increased GeoMFI was indicative of increased HLA-E surface expression stability following novel peptide exposures (FIG. 3).

NKG2A−/NKG2C− NK cells = test: NK cell activation markers in control NKG2A-/NKG2C- NK cells incubated with peptide and K562 expressing HLA-E; format: cell-based, human
Protocol: (§1) A human immortalized myelogenous leukemia cell line (K562), which expresses HLA-E was incubated with novel peptides (Table 1) derived from the human proteome or human cytomegalovirus proteome. […] Controls assessments were also performed using NKG2A−/NKG2C− cells (Tables 10-13). Inhibition was indicated by a decrease in percent cells positive for cell surface markers, while activation was indicated by an increase in percent cells positive for cell surface markers.

NKG2A+/NKG2C− NK cells = test: NK cell activation markers in NKG2A+/NKG2C- NK cells incubated with peptide and K562 expressing HLA-E (inhibition); format: cell-based, human; conditions: for percentage of CCL3+ NK cells / percentage of CD107a+ NK cells / percentage of IFNG+ NK cells / percentage of TNF+ NK cells: NKG2A+/NKG2C- NK cells, K562/HLA-E
Protocol: as §1

NKG2A−/NKG2C+ NK cells = test: NK cell activation markers in NKG2A-/NKG2C+ NK cells incubated with peptide and K562 expressing HLA-E (activation); format: cell-based, human; conditions: for effect on NKG2A−/NKG2C+ NK cell activation (in words): K562 expressing HLA-E, CD107a, IFNG, TNF, CCL3; for percentage of CCL3+ NK cells / percentage of CD107+ NK cells / percentage of IFNG+ NK cells / percentage of TNF+ NK cells: NKG2A-/NKG2C+ NK cells, K562/HLA-E
Protocol: as §1

T1 sequence (P13747 22-358): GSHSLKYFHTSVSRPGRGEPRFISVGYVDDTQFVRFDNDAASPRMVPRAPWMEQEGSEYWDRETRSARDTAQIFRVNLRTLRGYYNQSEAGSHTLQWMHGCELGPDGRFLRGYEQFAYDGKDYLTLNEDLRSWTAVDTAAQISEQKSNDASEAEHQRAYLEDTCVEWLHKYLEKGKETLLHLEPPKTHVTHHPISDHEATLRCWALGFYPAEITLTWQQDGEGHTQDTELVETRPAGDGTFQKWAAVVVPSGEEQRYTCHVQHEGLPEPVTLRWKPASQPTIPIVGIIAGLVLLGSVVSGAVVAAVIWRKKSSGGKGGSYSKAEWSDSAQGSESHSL
T1 sequence (P61769 21-119 partner): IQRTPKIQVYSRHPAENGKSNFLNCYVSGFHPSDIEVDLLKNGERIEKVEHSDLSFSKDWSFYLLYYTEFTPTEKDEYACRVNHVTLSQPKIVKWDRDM

RMPPRSVLL [human12] was tested, and the “HLA-E surface expression stability (GeoMFI)” value (HLA-E; Trial 1) was 3779 GeoMFI, the “HLA-E surface expression stability (GeoMFI)” value (HLA-E; Trial 2) was 4219 GeoMFI and the “HLA-E surface expression stability (GeoMFI)” value (HLA-E; Trial 3) was 4273 GeoMFI. For the same sequence, the “HLA-E surface expression stability (GeoMFI)” value (HLA-E; Trial 4) was 4705 GeoMFI, the “percentage CCL3+ NK cells” value (NKG2A−/NKG2C− NK cells; Trial 1) was 29.3% and the “percentage CD107+ NK cells” value (NKG2A−/NKG2C− NK cells; Trial 1) was 20.2%. For the same sequence, the “percentage TNF+ NK cells” value (NKG2A−/NKG2C− NK cells; Trial 1) was 3.43%, the “percentage of IFNG+ NK cells” value (NKG2A−/NKG2C− NK cells; Trial 1) was 10.2% and the “percentage CCL3+ NK cells” value (NKG2A−/NKG2C− NK cells; Trial 2) was 51.6%. The “percentage CD107+ NK cells” value (NKG2A−/NKG2C− NK cells; Trial 2) was 29%, the “percentage TNF+ NK cells” value (NKG2A−/NKG2C− NK cells; Trial 2) was 9.58% and the “percentage of IFNG+ NK cells” value (NKG2A−/NKG2C− NK cells; Trial 2) was 24%. For the same sequence, the “percentage CCL3+ NK cells” value (NKG2A−/NKG2C− NK cells; Trial 3) was 46.5%, the “percentage CD107+ NK cells” value (NKG2A−/NKG2C− NK cells; Trial 3) was 42% and the “percentage TNF+ NK cells” value (NKG2A−/NKG2C− NK cells; Trial 3) was 15.5%. For the same sequence, the “percentage of IFNG+ NK cells” value (NKG2A−/NKG2C− NK cells; Trial 3) was 36.2%, the “effect on NKG2A+/NKG2C− NK cell inhibition (in words)” value (NKG2A+/NKG2C− NK cells; K562 expressing HLA-E, CD107a, IFNG, TNF, CCL3) was “strong inhibitory” and the “percentage of CCL3+ NK cells” value (NKG2A+/NKG2C− NK cells; Trial 1) was 1.94%. For the same sequence, the “percentage of CD107a+ NK cells” value (NKG2A+/NKG2C− NK cells; Trial 1) was 0.85%, the “percentage of IFNG+ NK cells” value (NKG2A+/NKG2C− NK cells; Trial 1) was 0.14% and the “percentage of TNF+ NK cells” value (NKG2A+/NKG2C− NK cells; Trial 1) was 0.03%. For the same sequence, the “percentage of CCL3+ NK cells” value (NKG2A+/NKG2C− NK cells; Trial 2) was 2.96%, the “percentage of CD107a+ NK cells” value (NKG2A+/NKG2C− NK cells; Trial 2) was 0.99% and the “percentage of IFNG+ NK cells” value (NKG2A+/NKG2C− NK cells; Trial 2) was 0.32%. The “percentage of TNF+ NK cells” value (NKG2A+/NKG2C− NK cells; Trial 2) was 0.17%, the “percentage of CCL3+ NK cells” value (NKG2A+/NKG2C− NK cells; Trial 3) was 2.9% and the “percentage of CD107a+ NK cells” value (NKG2A+/NKG2C− NK cells; Trial 3) was 1.25%. The “percentage of IFNG+ NK cells” value (NKG2A+/NKG2C− NK cells; Trial 3) was 0.65%, the “percentage of TNF+ NK cells” value (NKG2A+/NKG2C− NK cells; Trial 3) was 0.45% and the “effect on NKG2A−/NKG2C+ NK cell activation (in words)” value (NKG2A−/NKG2C+ NK cells; listed as SEQ ID NO. 13) was “strong activating effects”. The “effect on NKG2A−/NKG2C+ NK cell activation (in words)” value (NKG2A−/NKG2C+ NK cells; listed as h12) was “strong inhibitory and activating effects”, the “percentage of CCL3+ NK cells” value (NKG2A−/NKG2C+ NK cells; Trial 1) was 55.3% and the “percentage of CD107+ NK cells” value (NKG2A−/NKG2C+ NK cells; Trial 1) was 36.5%. The “percentage of IFNG+ NK cells” value (NKG2A−/NKG2C+ NK cells; Trial 1) was 20.7%, the “percentage of TNF+ NK cells” value (NKG2A−/NKG2C+ NK cells; Trial 1) was 12.6% and the “percentage of CCL3+ NK cells” value (NKG2A−/NKG2C+ NK cells; Trial 2) was 83.9%. The “percentage of CD107+ NK cells” value (NKG2A−/NKG2C+ NK cells; Trial 2) was 77%, the “percentage of IFNG+ NK cells” value (NKG2A−/NKG2C+ NK cells; Trial 2) was 63.3% and the “percentage of TNF+ NK cells” value (NKG2A−/NKG2C+ NK cells; Trial 2) was 52.7%. For the same sequence, the “percentage of CCL3+ NK cells” value (NKG2A−/NKG2C+ NK cells; Trial 3) was 81.7%, the “percentage of CD107+ NK cells” value (NKG2A−/NKG2C+ NK cells; Trial 3) was 80.3% and the “percentage of IFNG+ NK cells” value (NKG2A−/NKG2C+ NK cells; Trial 3) was 66.3%. The “percentage of TNF+ NK cells” value (NKG2A−/NKG2C+ NK cells; Trial 3) was 59.6%.
